This is an account of results in patent US20120165331A1, “Di/tri-aza-spiro-C9-C11alkanes” (priority 2010, published 2012).

Where only a bound is given, the exact number is not on record here.

One may read the Ki as the dissociation constant of the complex between target and ligand, obtained from inhibition or displacement. As a reminder, the inhibition is how much of the control response was suppressed.

Assay [1] concerns the target T1, human orexin 1 receptor (Homo sapiens, UniProt O43613).
T1 construct: expressed in transfected cells
T1 sequence (O43613 1-425): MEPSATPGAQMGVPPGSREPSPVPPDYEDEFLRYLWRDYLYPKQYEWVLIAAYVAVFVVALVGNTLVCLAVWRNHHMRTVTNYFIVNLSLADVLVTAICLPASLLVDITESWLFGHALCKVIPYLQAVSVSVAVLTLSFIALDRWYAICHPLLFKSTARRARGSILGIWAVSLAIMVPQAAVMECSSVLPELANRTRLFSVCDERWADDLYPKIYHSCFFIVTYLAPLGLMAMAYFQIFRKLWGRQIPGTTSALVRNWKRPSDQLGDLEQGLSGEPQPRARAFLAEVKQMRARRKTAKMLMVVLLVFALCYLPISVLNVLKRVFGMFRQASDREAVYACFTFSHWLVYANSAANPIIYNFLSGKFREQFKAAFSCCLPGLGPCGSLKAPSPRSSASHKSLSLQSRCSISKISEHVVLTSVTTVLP
The assay can be described thus: Calcium accumulation in cells (FLIPR), antagonism of orexin A, human orexin 1 receptor. Particulars: for Ki: calcium accumulation, antagonism of orexin A, Cheng-Prusoff corrected, read-out: FLIPR hOx1R Ki; for inhibition at 10 µM: measured at a concentration of 10 μM of compound, read-out: FLIPR hOx1R % inhibition. It counts as cell-based. On the procedure: (§1) Calcium Accumulation in Cells (FLIPR):
(§2) Cells expressing human orexin 1 or human orexin 2 receptors, were seeded at 8,000 cells/well in 384 well black-walled clear bottom, poly-D-lysine coated plates. After 24 h, the medium was removed and cells were washed once with phosphate buffered saline and serum-deprived overnight in assay buffer (130 mM NaCl, 5.4 mM KCl, 1.8 mM CaCl2, 0.8 mM MgSO4, 0.9 mM NaH2PO4, 25 mM glucose, 20 mM HEPES, pH 7.4) containing bovine serum albumin (1% w/v).
(§3) On the day of the experiment, the cells seeded in black plates were treated with assay buffer containing the Ca^2+ sensitive fluorescent dye Fluo-4-AM (2 μM), and probenecid (0.1 mM). After 1 h plates were washed twice with, and resuspended in, assay buffer containing probenecid (0.1 mM) using a multi plate washer. The plates were placed into a FLIPR II (Fluorometric Imaging Plate Reader, Molecular Devices, Sunnyvale, Calif., USA) and baseline fluorescence (fluorescence light units, FLU) was measured (5 measurements, 2 S each; laser excitation 488 nm at 0.6-1 W, CCD camera exposure 0.4 s) before addition of buffer alone (basal) or containing test compounds (either compound of formula I alone, agonist alone or agonist in the presence of various concentrations of compounds of formula I). Fluorescence measurements were then continued every 1 S for 120 S followed by every 4 S for 240 S.
(§4) The measurements were typically made in two sequences:
(§5) Compounds of formula I were tested usually in a concentration range from 10^−9 M to 10^−5 M.
(§6) In the second round, performed one hour later (to allow for equilibration), Orexin A was tested either in the absence (calibration curves, Orexin A agonist controls) or in the presence of compounds of formula Ito determine antagonism.
(§7) Inhibition data is expressed in Table 1 as Kd [μM], converted by the Cheng and Prusoff correction (Kd=IC50/1+(L/EC50)), where IC50 is the 50% inhibition value determined in concentration response inhibition curves, EC50 is the half maximal activation concentration determined for orexin A in concentration response curves and L is the concentration of orexin A used in inhibition experiments performed in with a submaximal concentration of orexin A in the presence of up to 8 increasing concentrations of compound of formula I. Inhibition data is also expressed in Table 1 as % inhibition value measured at a concentration of 10 μM of selected compounds of formula I.

Assay [2] concerns the target T2, human orexin 2 receptor (Homo sapiens, UniProt O43614).
T2 construct: expressed in transfected cells
T2 sequence (O43614 1-444): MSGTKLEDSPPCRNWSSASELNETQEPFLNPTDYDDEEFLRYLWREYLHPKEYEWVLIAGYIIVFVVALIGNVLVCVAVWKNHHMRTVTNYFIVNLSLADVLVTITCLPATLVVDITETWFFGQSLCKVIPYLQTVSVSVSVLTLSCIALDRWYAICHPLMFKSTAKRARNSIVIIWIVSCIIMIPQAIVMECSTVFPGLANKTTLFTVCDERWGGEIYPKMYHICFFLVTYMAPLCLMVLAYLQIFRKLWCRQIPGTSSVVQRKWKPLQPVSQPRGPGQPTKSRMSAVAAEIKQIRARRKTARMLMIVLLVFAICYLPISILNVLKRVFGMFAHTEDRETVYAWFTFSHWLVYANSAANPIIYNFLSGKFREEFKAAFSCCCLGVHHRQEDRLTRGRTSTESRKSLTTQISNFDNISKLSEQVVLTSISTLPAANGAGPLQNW
The assay is described as follows: Calcium accumulation in cells (FLIPR), antagonism of orexin A, human orexin 2 receptor. In kind it is cell-based. Particulars: for Ki: calcium accumulation, antagonism of orexin A, Cheng-Prusoff corrected, read-out: FLIPR hOx2R Ki. The protocol:
as §1, §2, §3, §4, §5, §6, §7

`Cn1ccc2c(CN3C(=O)COCC34CCN(c3cnc5ccccc5n3)CC4)cccc21` [Example 8.10, 1-((1-Methyl-1H-indol-4-yl)methyl)-9-(quinoxalin-2-yl)-4-oxa-1,9-diazaspiro[5.5]undecan-2-one]: the values for the Ki in assay [1] and in assay [2] were 265 nM and 202 nM, respectively.

For `Cc1cc(C)nc(N2CCC3(CC2)NCCN(Cc2nn(C)cc2-c2ccc4c(c2)OCCO4)C3=O)n1` [Example 1.61, 4-((4-(2,3-Dihydro-benzo[b][1,4]dioxin-6-yl)-1-methyl-1H-pyrazol-3-yl)methyl)-9-(4,6-dimethylpyrimidin-2-yl)-1,4,9-triazaspiro[5.5] undecan-5-one], the Ki in assay [1] is 836 nM; in assay [2], 1.8 nM.

In the case of `Cc1cc(C)nc(N2CCC3(CC2)NCCN(Cc2nn(C)cc2-c2cccc(F)c2)C3=O)n1` [Example 1.43, 9-(4,6-Dimethyl-pyrimidin-2-yl)-4-((4-(3-fluorophenyl)-1-methyl-1H-pyrazol-3-yl)methyl)-1,4,9-triazaspiro[5.5] undecan-5-one], the inhibition at 10 µM in assay [1] worked out at 27%. Also, in assay [2], the Ki is 447 nM.

Regarding `Cc1cc(C)nc(N2CCC3(CCN(Cc4c[nH]c5ccccc45)C3=O)C2)n1` (stereo not drawn) [Example 5.7, 2-((1H-Indol-3-yl)methyl)-7-(4,6-dimethylpyrimidin-2-yl)-2,7-diazaspiro[4.4]nonan-1-one], the Ki worked out at 2130 nM in assay [1] and 249 nM in assay [2].

With `O=C1N(Cc2c[nH]c3ccccc23)CCC12CCN(c1nc3ccccc3o1)CC2` [Example 3.13, 8-Benzooxazol-2-yl-2-(1H-indol-3-ylmethyl)-2,8-diaza-spiro[4.5]decan-1-one], the Ki in assay [1] and in assay [2] was 342 nM each time.

For `Cc1cc(C)nc(N2CCC3(CC2)NCCN(Cc2nn(C)nc2-c2ccccc2)C3=O)n1` [Example 1.83, 9-(4,6-dimethyl-pyrimidin-2-yl)-4-((2-methyl-5-phenyl-2H-1,2,3-triazol-4-yl)methyl)-1,4,9-triazaspiro[5.5] undecan-5-one], the Ki was 4450 nM in assay [1] and 240 nM in assay [2].

As to `COc1ccc(-c2cn(C)nc2CN2CCNC3(CCN(c4nc(C)cc(C)n4)CC3)C2=O)cc1` [Example 1.36, 9-(4,6-Dimethyl-pyrimidin-2-yl)-4-((4-(4-methoxyphenyl)-1-methyl-1H-pyrazol-3-yl)methyl)-1,4,9-triazaspiro[5.5] undecan-5-one], in assay [1], the inhibition at 10 µM is 41%. Besides, in assay [2], the Ki worked out at 187 nM.

On to `Cc1cc(C)nc(N2CCC3(CC2)NCCN(Cc2nn(C)cc2-c2cccc(N(C)C)c2)C3=O)n1` [Example 1.58], for which the inhibition at 10 µM in assay [1] worked out at 17%. For the same compound, the Ki in assay [2] turned out to be 458 nM.

In the case of `O=C1N(Cc2c[nH]c3ccccc23)CCC12CCN(c1cc(C(F)(F)F)ncn1)C2` (stereo not drawn) [Example 5.17, 2-((1H-Indol-3-yl)methyl)-7-(6-(trifluoromethyl)pyrimidin-4-yl)-2,7-diazaspiro[4.4]nonan-1-one], the inhibition at 10 µM in assay [1] came to 49%. Also, the Ki in assay [2] was determined as 1790 nM.

With `CC(C)c1ccnc(N2CCC3(CCN(Cc4c[nH]c5ccccc45)C3=O)C2)n1` (stereo not drawn) [Example 5.39, 2-((1H-indol-3-yl)methyl)-7-(4-isopropylpyrimidin-2-yl)-2,7-diazaspiro[4.4]nonan-1-one], the Ki turned out to be 1210 nM in assay [1] and 283 nM in assay [2].

Take `Cc1cc(C#N)nc(N2CCC3(CC2)NCCN(Cc2nc(C)oc2-c2ccccc2)C3=O)n1` [Example 1.21, 6-Methyl-2-(4-((2-methyl-5-phenyloxazol-4-yl)methyl)-5-oxo-1,4,9-triazaspiro[5.5]undecan-9-yl) pyrimidine-4-carbonitrile]: the inhibition at 10 µM in assay [1] worked out at 29%. Also, the Ki in assay [2] stood at 337 nM.

On to `N#Cc1ccnc(N2CCC3(CC2)COCC(=O)N3Cc2cccc3[nH]ccc23)n1` [Example 8.18, 2-(1-((1H-Indol-4-yl)methyl)-2-oxo-4-oxa-1,9-diazaspiro[5.5]undecan-9-yl)pyrimidine-4-carbonitrile], for which the inhibition at 10 µM in assay [1] was found to be 25%. Besides, the Ki in assay [2] came to 1010 nM.

With `Cc1cnc(N2CCC3(CCN(Cc4c[nH]c5ccccc45)C3=O)C2)s1` (stereo not drawn) [Example 5.23, 2-((1H-indol-3-yl)methyl)-7-(5-methylthiazol-2-yl)-2,7-diazaspiro[4.4]nonan-1-one], the inhibition at 10 µM in assay [1] worked out at 67%. The Ki in assay [2] stood at 645 nM.

Consider `COc1ccc(-c2cn(C)nc2CN2CCNC3(CCN(c4nc(C)cc(C)n4)CC3)C2=O)cc1OC` [Example 1.35, 4-((4-(3,4-Dimethoxyphenyl)-1-methyl-1H-pyrazol-3-yl)methyl)-9-(4,6-dimethylpyrimidin-2-yl)-1,4,9-triazaspiro[5.5] undecan-5-one], for which the inhibition at 10 µM in assay [1] is 25%. In assay [2], the Ki was found to be 400 nM.

As to `COc1ccnc(N2CC[C@@]3(CCN(Cc4c[nH]c5ccccc45)C3=O)C2)n1` [Example 5.2, (R)-2-((1H-indol-3-yl)methyl)-7-(4-methoxypyrimidin-2-yl)-2,7-diazaspiro[4.4]nonan-1-one], in assay [1], the inhibition at 10 µM turned out to be 49%. For the same compound, the inhibitory constant (Ki) in assay [2] came to 1260 nM.

Consider `Cc1cc(C)nc(N2CCC3(CCN(Cc4cccc5[nH]ccc45)C3=O)C2)n1` (stereo not drawn) [Example 5.9, 2-((1H-Indol-4-yl)methyl)-7-(4,6-dimethylpyrimidin-2-yl)-2,7-diazaspiro[4.4]nonan-1-one], for which, in assay [1], the inhibition at 10 µM was under 10%. For the same compound, the Ki in assay [2] was determined as 1290 nM.

On to `Cc1ccnc(N2CCC3(CCN(Cc4c[nH]c5ccccc45)C3=O)CC2)n1` [Example 3.5, 2-((1H-Indol-3-yl)methyl)-8-(4-methylpyrimidin-2-yl)-2,8-diazaspiro[4.5]decan-1-one], for which the inhibition at 10 µM in assay [1] was found to be 25%. Moreover, the Ki in assay [2] came to 296 nM.

In the case of `O=C1COCC2(CCN(c3cnc4ccccc4n3)CC2)N1Cc1c[nH]c2ccccc12` [Example 8.8, 1-((1H-Indol-3-yl)methyl)-9-(quinoxalin-2-yl)-4-oxa-1,9-diazaspiro[5.5]undecan-2-one], the inhibition at 10 µM in assay [1] turned out to be 33%. Besides, the Ki in assay [2] is 635 nM.

As to `COc1cc(C)nc(N2CCC3(CCN(Cc4nn(C)nc4Br)C3=O)C2)n1` (stereo not drawn) [Example 5.46, 2-((5-bromo-2-methyl-2H-1,2,3-triazol-4-yl)methyl)-7-(4-methoxy-6-methylpyrimidin-2-yl)-2,7-diazaspiro[4.4]nonan-1-one], the inhibition at 10 µM is under 10% in assay [1] and 21% in assay [2] (measured at a concentration of 10 μM of compound, read-out: FLIPR hOx2R % inhibition).

`O=C1N(Cc2c[nH]c3ccccc23)CCC12CCN(c1nccc(C(F)(F)F)n1)C2` (stereo not drawn) [Example 5.41, 2-((1H-indol-3-yl)methyl)-7-(4-(trifluoromethyl)pyrimidin-2-yl)-2,7-diazaspiro[4.4]nonan-1-one]: the results for the inhibitory constant (Ki) in assay [1] and in assay [2] were 2410 nM and 343 nM, respectively.

`O=C1N(Cc2c[nH]c3ccccc23)CCC12CCN(c1cc(N3CCCC3)ncn1)C2` (stereo not drawn) [Example 5.35, 2-((1H-indol-3-yl)methyl)-7-(6-(pyrrolidin-1-yl)pyrimidin-4-yl)-2,7-diazaspiro[4.4]nonan-1-one]: the Ki in assay [1] was determined as 1770 nM; in assay [2], 2720 nM.
